Experimental data as given in US10584121B2 (Merck Sharp & Dohme Corp., priority 2015, dated 2020).

Test: Rat PK: plasma clearance after PO and IV dosing
Assay type: in vivo
Details: fasted male Wistar Han rats; IV 0.5 mg/kg or 0.05 mg/kg; 20/60/20 DMSO/PEG400/H2O
Protocol: Experimental Procedure for Collecting Rat PK:
Pharmacokinetic parameters were determined following PO and IV dosing at 1 mg/kg and 0.5 mg/kg or 0.05 mg/kg respectively in fasted male Wistar Han rats. Compounds were formulated for both PO and IV dosing in 20/60/20 DMSO/PEG400/H2O. Plasma samples obtained from dosed animals were acidified by adding 30 μL of 2% formic acid to 100 μL of plasma to stabilize potential acyl-glucuronide metabolites. Sample clean-up was carried out by means of a single step protein precipitation technique by adding 200 μL of acetonitrile to 50 μL aliquots of individual subject samples. Samples were mixed by vortex for homogeneity and then subjected to centrifugation at 3500 rpm for 10 min. The supernatant (200 μL) was collected and an aliquot was injected into the LC-MS/MS for analysis. Pharmacokinetic parameters were calculated using established non-compartmental methods. The area under the plasma concentration versus time curve (AUC) was determined using the Watson software (version 7.3) or Phoenix Professional (version 6.2.1), with linear trapezoidal interpolation in the ascending slope and logarithmic trapezoidal interpolation in the descending slope. The portion of the AUC from the last measurable concentration to infinity was estimated from the equation, Ct/kel, where Ct represents the last measurable concentration and kel is the elimination rate constant. The latter was determined from the concentration versus time curve by linear regression at the terminal phase of the semi-logarithmic plot.
For `O=C(O)c1ccc(-c2nn(C(=O)c3c(Cl)cccc3C(F)(F)F)c3cccnc23)c(F)c1` [historical compound, reference compound], the “Rat plasma clearance (Clp)” value was 76 mL/min/kg.

Same assay, conditions: rat, plasma; fasted male Wistar Han rats; IV 0.5 mg/kg or 0.05 mg/kg; 20/60/20 DMSO/PEG400/H2O; read-out: Rat plasma clearance (Clp)
For `O=C(O)c1ccc(-c2nn(C(=O)c3c(C(F)F)cccc3C3(C(F)(F)F)CC3)c3cccnc23)c(F)c1` [Example 1G, 4-(1-(2-(difluoromethyl)-6-(1-(trifluoromethyl)cyclopropyl)benzoyl)-1H-pyrazolo[4,3-b]pyridin-3-yl)-3-fluorobenzoic acid], the clearance was 5 mL/min/kg. `O=C(O)c1ccc(-c2nn(C(=O)c3c(C4(C(F)(F)F)CC4)ccc(F)c3Cl)c3cccnc23)c(F)c1` [Example 1F, 4-(1-(2-chloro-3-fluoro-6-(1-(trifluoromethyl)cyclopropyl)benzoyl)-1H-pyrazolo[4,3-b]pyridin-3-yl)-3-fluorobenzoic acid] showed a clearance of 8 mL/min/kg. With `O=C(O)c1ccc(-c2cn(C(=O)c3c(Cl)cccc3C3(C(F)F)CC3)c3cccnc23)c(F)c1` [Example 1J] the clearance was 5 mL/min/kg. `O=C(O)c1ccc(-c2cn(C(=O)c3c(Cl)cccc3C3(C(F)(F)F)CC3)c3cccnc23)c(F)c1` [Example 1B, 4-(1-(2-chloro-6-(1-(trifluoromethyl)cyclopropyl)benzoyl)-1H-pyrrolo[3,2-b]pyridin-3-yl)-3-fluorobenzoic acid] showed a clearance of 5 mL/min/kg. `Cc1c(F)ccc(C2(C(F)(F)F)CC2)c1C(=O)n1nc(-c2ccc(C(=O)O)cc2F)c2ncccc21` [Example 1I, 3-fluoro-4-(1-(3-fluoro-2-methyl-6-(1-(trifluoromethyl)cyclopropyl)benzoyl)-1H-pyrazolo[4,3-b]pyridin-3-yl)benzoic acid] gave a clearance of 18 mL/min/kg. In the case of `O=C(O)c1ccc(-c2nn(C(=O)c3c(Cl)cccc3C3(C(F)F)CC3)c3cccnc23)c(F)c1` [Example 1D, 4-(1-(2-chloro-6-(1-(difluoromethyl)cyclopropyl)benzoyl)-1H-pyrazolo[4,3-b]pyridin-3-yl)-3-fluorobenzoic acid], the clearance is reported as 10 mL/min/kg. Compound `Cc1cccc(C2(C(F)(F)F)CC2)c1C(=O)n1nc(-c2ccc(C(=O)O)cc2F)c2ncccc21` [Example 1C, 3-fluoro-4-(1-(2-methyl-6-(1-(trifluoromethyl)cyclopropyl)benzoyl)-1H-pyrazolo[4,3-b]pyridin-3-yl)benzoic acid] has a clearance of 21 mL/min/kg. `O=C(O)c1ccc(-c2nn(C(=O)c3c(C4(C(F)F)CC4)ccc(F)c3Cl)c3cccnc23)c(F)c1` [Example 1H, 4-(1-(2-chloro-6-(1-(difluoromethyl)cyclopropyl)-3-fluorobenzoyl)-1H-pyrazolo[4,3-b]pyridin-3-yl)-3-fluorobenzoic acid] showed a clearance of 16 mL/min/kg. Compound `O=C(O)c1ccc(-c2nn(C(=O)c3c(Cl)cccc3C3(C(F)(F)F)CC3)c3cccnc23)c(F)c1` [Example 1A, 4-(1-(2-chloro-6-(1-(trifluoromethyl)cyclopropyl)benzoyl)-1H-pyrazolo[4,3-b]pyridin-3-yl)-3-fluorobenzoic acid] has a clearance of 6 mL/min/kg. `O=C(O)c1ccc(-c2nn(C(=O)c3c(Cl)cccc3C3(CF)CC3)c3cccnc23)c(F)c1` [Example 1E, 4-(1-(2-chloro-6-(1-(fluoromethyl)cyclopropyl)benzoyl)-1H-pyrazolo[4,3-b]pyridin-3-yl)-3-fluorobenzoic acid] showed a clearance of 16 mL/min/kg.
